Test results from patent publication US20090099237A1, “Methods of treating inflammatory diseases” (Roche Palo Alto LLC, priority 2007, published 2009).
Read-outs that look alike come from different tables or passages of the source.

Assays:
CK1δ = target: T1, CK1δ (Homo sapiens, UniProt P48730); test: In vitro kinase assay (33P, peptide substrate); format: biochemical
T1 construct: purchased Upstate

CK1γ1 = target: T2, CK1γ1 (Homo sapiens, UniProt Q9HCP0); test: In vitro kinase assay (33P, peptide substrate); format: biochemical
T2 construct: purchased Invitrogen

AMPK-alpha1 = target: T3, AMPK-alpha1 (Homo sapiens, UniProt Q13131); test: KinomeScan kinase profiling; format: binding; conditions: 10 μM
T3 construct: purchased Ambit Biosciences

BRAF(V600E) = target: T4, BRAF(V600E) (Homo sapiens, UniProt P15056, V600E); test: KinomeScan kinase profiling; format: binding; conditions: 10 μM
T4 construct: purchased Ambit Biosciences

CLK2 = target: T5, CLK2 (Homo sapiens, UniProt P49760); test: KinomeScan kinase profiling; format: binding; conditions: 10 μM
T5 construct: purchased Ambit Biosciences (San Diego, Calif.)

CSNK1E = target: T6, CSNK1E (Homo sapiens, UniProt P49674); test: KinomeScan kinase profiling; format: binding; conditions: 10 μM
T6 construct: purchased Ambit Biosciences (San Diego, Calif.)

EPHA2 = target: T7, EPHA2 (Homo sapiens, UniProt P29317); test: KinomeScan kinase profiling; format: binding; conditions: 10 μM
T7 construct: purchased Ambit Biosciences (San Diego, Calif.)

FGFR2 = target: T8, FGFR2 (Homo sapiens, UniProt P21802); test: KinomeScan kinase profiling; format: binding; conditions: 10 μM
T8 construct: purchased Ambit Biosciences

JAK2(Kin.Dom2) = target: T9, JAK2(Kin.Dom2) (Homo sapiens, UniProt O60674); test: KinomeScan kinase profiling; format: binding; conditions: 10 μM
T9 construct: JAK2(Kin.Dom2); purchased Ambit Biosciences

LCK = target: T10, LCK (Homo sapiens, UniProt P06239); test: KinomeScan kinase profiling; format: binding; conditions: 10 μM
T10 construct: purchased Ambit Biosciences

PAK4 = PAK4 (Homo sapiens, UniProt O96013); test: KinomeScan kinase profiling; format: binding; conditions: 10 μM
PCTK1 = PCTK1 (Homo sapiens, UniProt Q00536); test: KinomeScan kinase profiling; format: binding; conditions: 10 μM
AKT1 = target: T11, AKT1 (Homo sapiens, UniProt P31749); test: KinomeScan kinase profiling; format: binding; conditions: 10 μM
T11 construct: purchased Ambit Biosciences
T11 sequence (P31749 whole entry): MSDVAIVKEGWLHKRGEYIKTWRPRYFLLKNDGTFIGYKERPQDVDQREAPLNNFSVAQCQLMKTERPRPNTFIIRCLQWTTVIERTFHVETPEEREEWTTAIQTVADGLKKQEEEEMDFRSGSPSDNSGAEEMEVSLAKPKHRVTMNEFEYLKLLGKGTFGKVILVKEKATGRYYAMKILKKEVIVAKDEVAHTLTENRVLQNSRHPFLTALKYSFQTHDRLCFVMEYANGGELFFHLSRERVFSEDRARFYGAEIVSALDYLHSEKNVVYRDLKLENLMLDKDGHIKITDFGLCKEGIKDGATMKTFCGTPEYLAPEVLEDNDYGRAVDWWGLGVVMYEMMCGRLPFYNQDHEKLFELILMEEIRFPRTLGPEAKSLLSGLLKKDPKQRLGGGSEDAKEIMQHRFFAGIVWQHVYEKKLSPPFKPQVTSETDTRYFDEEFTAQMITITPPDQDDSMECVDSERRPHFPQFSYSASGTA
Source text: (§1) The selectivity of a given CK1α, CK1α-CK1δ, CK1α-CK1ε or CK1α-CK1δ-CK1ε inhibitor compound can be determined by testing the compound against a panel of known kinases. An example of such a kinase profiling technology is the “KinomeScan” from Ambit Biosciences in which compounds can be screened for their modulatory activities against more than 200 known kinases.

BMX = target: T12, BMX (Homo sapiens, UniProt P51813); test: KinomeScan kinase profiling; format: binding; conditions: 10 μM
T12 construct: purchased Ambit Biosciences
Source text: as §1

CAMK2G = target: T13, CAMK2G (Homo sapiens, UniProt Q13555); test: KinomeScan kinase profiling; format: binding; conditions: 10 μM
T13 construct: purchased Ambit Biosciences
Source text: as §1

CLK4 = target: T14, CLK4 (Homo sapiens, UniProt Q9HAZ1); test: KinomeScan kinase profiling; format: binding; conditions: 10 μM
T14 construct: purchased Ambit Biosciences (San Diego, Calif.)
Source text: as §1

CSK = target: T15, CSK (Homo sapiens, UniProt P41240); test: KinomeScan kinase profiling; format: binding; conditions: 10 μM
T15 construct: purchased Ambit Biosciences (San Diego, Calif.)
T15 sequence (P41240 whole entry): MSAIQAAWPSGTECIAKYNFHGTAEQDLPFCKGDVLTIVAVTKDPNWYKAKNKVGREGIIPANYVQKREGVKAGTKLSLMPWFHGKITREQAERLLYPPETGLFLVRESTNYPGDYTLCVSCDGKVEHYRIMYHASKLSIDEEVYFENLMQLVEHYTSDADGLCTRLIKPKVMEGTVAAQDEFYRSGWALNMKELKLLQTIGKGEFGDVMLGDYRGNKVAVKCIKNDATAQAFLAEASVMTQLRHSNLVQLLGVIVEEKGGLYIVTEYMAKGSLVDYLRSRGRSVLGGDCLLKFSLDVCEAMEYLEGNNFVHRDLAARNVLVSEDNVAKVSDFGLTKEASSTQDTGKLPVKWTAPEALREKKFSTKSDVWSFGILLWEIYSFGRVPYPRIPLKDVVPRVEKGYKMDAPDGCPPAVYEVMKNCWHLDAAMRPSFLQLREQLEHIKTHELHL
Source text: as §1

CSNK2A1 = target: T16, CSNK2A1 (Homo sapiens, UniProt P68400); test: KinomeScan kinase profiling; format: binding; conditions: 10 μM
T16 construct: purchased Ambit Biosciences (San Diego, Calif.)
T16 sequence (P68400 whole entry): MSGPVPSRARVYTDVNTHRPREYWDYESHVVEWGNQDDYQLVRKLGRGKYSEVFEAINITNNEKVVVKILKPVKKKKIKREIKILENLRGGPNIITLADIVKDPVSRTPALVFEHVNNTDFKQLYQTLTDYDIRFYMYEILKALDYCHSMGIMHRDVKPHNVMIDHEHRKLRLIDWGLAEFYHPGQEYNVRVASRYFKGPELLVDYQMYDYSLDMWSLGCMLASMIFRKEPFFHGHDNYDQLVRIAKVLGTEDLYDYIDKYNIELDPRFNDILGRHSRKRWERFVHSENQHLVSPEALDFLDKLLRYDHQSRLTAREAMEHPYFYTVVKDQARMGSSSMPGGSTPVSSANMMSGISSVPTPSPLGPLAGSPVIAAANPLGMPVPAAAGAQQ
Source text: as §1

HCK = target: T17, HCK (Homo sapiens, UniProt P08631); test: KinomeScan kinase profiling; format: binding; conditions: 10 μM
T17 construct: purchased Ambit Biosciences
Source text: as §1

JNK1 = target: T18, JNK1 (Homo sapiens, UniProt P45983); test: KinomeScan kinase profiling; format: binding; conditions: 10 μM
T18 construct: purchased Ambit Biosciences
Source text: as §1

MAP4K5 = MAP4K5 (Homo sapiens, UniProt Q9Y4K4); test: KinomeScan kinase profiling; format: binding; conditions: 10 μM
Chain of MAP4K5 (Q9Y4K4 whole entry): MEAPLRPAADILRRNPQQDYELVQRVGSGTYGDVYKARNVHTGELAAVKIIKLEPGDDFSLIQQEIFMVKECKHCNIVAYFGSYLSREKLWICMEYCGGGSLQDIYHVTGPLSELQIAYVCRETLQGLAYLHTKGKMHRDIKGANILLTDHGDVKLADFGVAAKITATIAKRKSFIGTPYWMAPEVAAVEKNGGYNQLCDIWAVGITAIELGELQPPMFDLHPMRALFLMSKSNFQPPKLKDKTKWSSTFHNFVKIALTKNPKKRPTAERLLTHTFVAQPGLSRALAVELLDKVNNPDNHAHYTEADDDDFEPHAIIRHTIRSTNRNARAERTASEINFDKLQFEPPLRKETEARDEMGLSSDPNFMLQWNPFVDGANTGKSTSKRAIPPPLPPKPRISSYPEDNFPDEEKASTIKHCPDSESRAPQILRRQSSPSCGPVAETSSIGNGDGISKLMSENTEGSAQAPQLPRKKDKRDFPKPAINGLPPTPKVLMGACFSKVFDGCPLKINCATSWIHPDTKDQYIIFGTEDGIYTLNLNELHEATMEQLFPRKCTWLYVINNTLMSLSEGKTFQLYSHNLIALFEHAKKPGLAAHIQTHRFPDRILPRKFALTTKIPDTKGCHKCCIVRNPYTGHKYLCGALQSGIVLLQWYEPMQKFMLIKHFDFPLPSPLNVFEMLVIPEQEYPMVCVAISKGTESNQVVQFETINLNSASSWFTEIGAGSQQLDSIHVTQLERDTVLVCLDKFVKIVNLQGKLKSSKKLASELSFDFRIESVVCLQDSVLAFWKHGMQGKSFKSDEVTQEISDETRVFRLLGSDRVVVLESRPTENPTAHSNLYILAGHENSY
Source text: as §1

PLK4 = target: T19, PLK4 (Homo sapiens, UniProt O00444); test: KinomeScan kinase profiling; format: binding; conditions: 10 μM
T19 construct: purchased Ambit Biosciences
Source text: as §1

RPS6KA5 = target: T20, RPS6KA5 (Homo sapiens, UniProt O75582); test: KinomeScan kinase profiling; format: binding; conditions: 10 μM
T20 construct: purchased Ambit Biosciences
Source text: as §1

STK10 = target: T21, STK10 (Homo sapiens, UniProt O94804); test: KinomeScan kinase profiling; format: binding; conditions: 10 μM
T21 construct: purchased Ambit Biosciences
Source text: as §1

STK17B = target: T22, STK17B (Homo sapiens, UniProt O94768); test: KinomeScan kinase profiling; format: binding; conditions: 10 μM
T22 construct: purchased Ambit Biosciences
T22 sequence (O94768 whole entry): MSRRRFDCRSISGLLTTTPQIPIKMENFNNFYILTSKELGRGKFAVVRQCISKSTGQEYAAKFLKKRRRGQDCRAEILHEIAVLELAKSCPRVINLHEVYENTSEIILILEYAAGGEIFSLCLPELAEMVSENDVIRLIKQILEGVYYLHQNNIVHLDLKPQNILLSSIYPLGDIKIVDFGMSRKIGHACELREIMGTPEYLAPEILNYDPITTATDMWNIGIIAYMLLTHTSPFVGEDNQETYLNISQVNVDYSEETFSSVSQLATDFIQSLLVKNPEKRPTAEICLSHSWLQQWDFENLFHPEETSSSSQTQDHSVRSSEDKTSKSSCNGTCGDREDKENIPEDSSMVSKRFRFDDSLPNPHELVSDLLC
Source text: as §1

TXK = target: T23, TXK (Homo sapiens, UniProt P42681); test: KinomeScan kinase profiling; format: binding; conditions: 10 μM
T23 construct: purchased Ambit Biosciences
T23 sequence (P42681 whole entry): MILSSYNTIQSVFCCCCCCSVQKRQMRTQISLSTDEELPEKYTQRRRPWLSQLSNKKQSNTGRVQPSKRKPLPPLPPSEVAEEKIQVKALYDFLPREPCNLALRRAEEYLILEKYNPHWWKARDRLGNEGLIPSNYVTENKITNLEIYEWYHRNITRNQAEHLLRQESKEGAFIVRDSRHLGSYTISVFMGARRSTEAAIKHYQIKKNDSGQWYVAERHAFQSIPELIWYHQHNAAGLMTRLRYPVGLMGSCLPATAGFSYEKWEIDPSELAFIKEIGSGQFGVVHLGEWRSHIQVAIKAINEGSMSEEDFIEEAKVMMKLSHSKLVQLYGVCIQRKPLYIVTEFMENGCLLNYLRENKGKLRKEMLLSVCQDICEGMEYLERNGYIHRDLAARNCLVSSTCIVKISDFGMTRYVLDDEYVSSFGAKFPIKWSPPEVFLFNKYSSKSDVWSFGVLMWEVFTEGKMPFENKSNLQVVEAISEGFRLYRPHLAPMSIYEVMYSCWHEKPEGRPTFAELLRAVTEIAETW
Source text: as §1

ULK3(mouse) = target: T24, ULK3(mouse) (Mus musculus, UniProt Q3U3Q1); test: KinomeScan kinase profiling; format: binding; conditions: 10 μM
T24 construct: purchased Ambit Biosciences
Source text: as §1

PTK6 = target: T25, PTK6 (Homo sapiens, UniProt Q13882); test: KinomeScan kinase profiling; format: binding; conditions: 10 μM
T25 construct: purchased Ambit Biosciences
T25 sequence (Q13882 whole entry): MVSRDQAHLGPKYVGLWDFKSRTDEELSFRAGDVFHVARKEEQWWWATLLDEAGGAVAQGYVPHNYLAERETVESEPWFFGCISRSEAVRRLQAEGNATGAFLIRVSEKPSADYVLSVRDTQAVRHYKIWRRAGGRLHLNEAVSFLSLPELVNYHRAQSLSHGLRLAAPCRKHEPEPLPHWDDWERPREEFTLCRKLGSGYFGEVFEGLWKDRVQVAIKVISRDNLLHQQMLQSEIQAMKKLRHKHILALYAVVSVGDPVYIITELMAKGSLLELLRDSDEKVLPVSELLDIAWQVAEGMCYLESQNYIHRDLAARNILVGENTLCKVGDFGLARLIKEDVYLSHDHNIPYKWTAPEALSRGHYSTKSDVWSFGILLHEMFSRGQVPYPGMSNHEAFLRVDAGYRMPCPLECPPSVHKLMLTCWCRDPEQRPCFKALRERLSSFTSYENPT

RPS6KA2 = target: T26, RPS6KA2 (Homo sapiens, UniProt Q15349); test: KinomeScan kinase profiling; format: binding; conditions: 10 μM
T26 construct: purchased Ambit Biosciences
T26 sequence (Q15349 whole entry): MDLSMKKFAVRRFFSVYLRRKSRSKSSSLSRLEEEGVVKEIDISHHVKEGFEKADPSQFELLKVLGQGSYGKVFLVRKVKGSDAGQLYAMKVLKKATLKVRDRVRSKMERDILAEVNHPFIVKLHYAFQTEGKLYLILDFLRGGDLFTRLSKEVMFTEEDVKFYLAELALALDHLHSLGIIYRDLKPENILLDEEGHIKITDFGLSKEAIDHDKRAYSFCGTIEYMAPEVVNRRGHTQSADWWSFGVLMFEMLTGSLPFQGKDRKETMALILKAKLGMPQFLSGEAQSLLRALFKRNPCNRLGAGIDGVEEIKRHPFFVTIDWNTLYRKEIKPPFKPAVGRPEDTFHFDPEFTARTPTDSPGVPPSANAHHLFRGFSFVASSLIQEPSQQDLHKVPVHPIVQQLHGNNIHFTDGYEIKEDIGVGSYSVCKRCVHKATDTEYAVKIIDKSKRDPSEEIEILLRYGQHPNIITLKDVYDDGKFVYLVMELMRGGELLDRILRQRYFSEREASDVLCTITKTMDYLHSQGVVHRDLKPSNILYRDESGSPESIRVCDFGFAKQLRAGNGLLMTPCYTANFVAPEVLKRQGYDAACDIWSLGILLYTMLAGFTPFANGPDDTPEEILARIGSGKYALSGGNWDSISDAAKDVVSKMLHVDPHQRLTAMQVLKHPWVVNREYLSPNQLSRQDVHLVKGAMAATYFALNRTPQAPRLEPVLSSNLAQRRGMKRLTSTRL

RPS6KA3 = target: T27, RPS6KA3 (Homo sapiens, UniProt P51812); test: KinomeScan kinase profiling; format: binding; conditions: 10 μM
T27 construct: purchased Ambit Biosciences
T27 sequence (P51812 whole entry): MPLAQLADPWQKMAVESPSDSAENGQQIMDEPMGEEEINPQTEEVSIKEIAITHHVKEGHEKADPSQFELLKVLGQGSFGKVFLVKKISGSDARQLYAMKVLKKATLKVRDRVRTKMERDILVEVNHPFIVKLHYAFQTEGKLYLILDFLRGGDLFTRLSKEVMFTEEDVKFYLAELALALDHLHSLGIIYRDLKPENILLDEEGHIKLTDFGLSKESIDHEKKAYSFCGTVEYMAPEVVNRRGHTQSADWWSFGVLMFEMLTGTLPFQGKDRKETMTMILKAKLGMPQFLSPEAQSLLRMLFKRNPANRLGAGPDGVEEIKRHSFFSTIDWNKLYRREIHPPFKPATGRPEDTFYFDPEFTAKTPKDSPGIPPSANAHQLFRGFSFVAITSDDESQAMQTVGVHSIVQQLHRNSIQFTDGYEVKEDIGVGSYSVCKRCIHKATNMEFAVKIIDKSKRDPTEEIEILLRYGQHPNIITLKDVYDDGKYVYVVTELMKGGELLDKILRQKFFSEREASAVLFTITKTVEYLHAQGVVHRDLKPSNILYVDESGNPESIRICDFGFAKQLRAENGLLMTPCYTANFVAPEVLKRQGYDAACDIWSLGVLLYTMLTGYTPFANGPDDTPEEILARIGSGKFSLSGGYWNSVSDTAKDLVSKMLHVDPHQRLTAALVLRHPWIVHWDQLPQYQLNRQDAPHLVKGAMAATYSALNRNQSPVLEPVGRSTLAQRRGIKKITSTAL

STK3 = target: T28, STK3 (Homo sapiens, UniProt Q13188); test: KinomeScan kinase profiling; format: binding; conditions: 10 μM
T28 construct: purchased Ambit Biosciences

STK4 = target: T29, STK4 (Homo sapiens, UniProt Q13043); test: KinomeScan kinase profiling; format: binding; conditions: 10 μM
T29 construct: purchased Ambit Biosciences

[1] = test system: IL-6 production in human umbilical vein endothelial cells (HUVECs); test: Cytokine-induced IL-6 production assay in HUVEC; format: cell-based; conditions: IL-1β or LPS stimulation for 6 hours, ELISA, FIG. 4
Protocol: Clonetics® primary human umbilical vein endothelial cells (HUVEC; Lonza Walkersville, Inc., Walkersville, Md.) were cultured according to the manufacturer's instructions in EGM™-2 medium (Lonza) supplemented with EGM-2 SingleQuots (containing fetal bovine serum, hydrocortisone, hFGF, VEGF, hFGF-B, R3-IGF-1, ascorbic acid, hEGF, heparin and gentamicin; Lonza). Where indicated, cells were stimulated with 1 ng/mL IL-1β (R&D Systems, Inc., Minneapolis, Minn.) or 50 ng/mL LPS (Sigma-Aldrich, St. Louis, Mo.) for 6 or 24 hours before cell or supernatant harvest.
Activity of IC261 and Compound A against cytokine-induced inflammation in vitro was determined in human umbilical vein endothelial cells (HUVECs) upon stimulation with either IL-1β or LPS for 6 hours. IL-6 was assessed in supernatants by ELISA according to the manufacturer's instructions (BD Biosciences), and % inhibition calculated based on maximal IL-6 production in each assay.

| SMILES | % Binding (AMPK-alpha1) [%] | % Binding (BRAF(V600E)) [%] | % Binding (CLK2) [%] | % Binding (CSNK1E) [%] | % Binding (EPHA2) [%] | % Binding (FGFR2) [%] | % Binding (JAK2(Kin.Dom2)) [%] | % Binding (LCK) [%] | % Binding (PAK4) [%] | % Binding (PCTK1) [%] | % Binding (AKT1) [%] | % Binding (BMX) [%] | % Binding (CAMK2G) [%] | % Binding (CLK4) [%] | % Binding (CSK) [%] | % Binding (CSNK2A1) [%] | % Binding (HCK) [%] | % Binding (JNK1) [%] | % Binding (MAP4K5) [%] | % Binding (PLK4) [%] | also measured |
| --- | --- | --- | --- | --- | --- | --- | --- | --- | --- | --- | --- | --- | --- | --- | --- | --- | --- | --- | --- | --- | --- |
| NC(=O)c1cc(-c2ccncc2)c[nH]1 [Compound A, 4-Pyridin-4-yl-1H-pyrrole-2-carboxylic acid amide] | <50 | <50 | <50 | 94 | <50 | <50 | <50 | <50 | <50 | <50 | <50 | <50 | <50 | 97 | <50 | <50 | <50 | <50 | <50 | <50 | IC50 (CK1δ; CK1δ, 50 μM ATP, read-out: IC50): 7.57 µM; IC50 (CK1γ1; CK1γ1, 50 μM ATP, read-out: IC50): > 100 µM; % Binding (RPS6KA5): <50%; % Binding (STK10): <50%; % Binding (STK17B): 96%; % Binding (TXK): <50%; % Binding (ULK3(mouse)): <50%; % Binding (PTK6): <50%; % Binding (RPS6KA2): <50%; % Binding (RPS6KA3): <50%; % Binding (STK3): <50%; % Binding (STK4): <50%; inhibition of IL-1β or LPS-induced IL-6 production [1]: inhibition |
| COc1cc(OC)c(C=C2C(O)=Nc3ccccc32)c(OC)c1 [IC261, 3-[(2,4,6-trimethoxyphenyl)methylidenyl]-indolin-2-one] | <50 | <50 | <50 | 100 | <50 | <50 | <50 | <50 | <50 | <50 | <50 | <50 | <50 | <50 | <50 | <50 | <50 | <50 | <50 | <50 | IC50 (CK1δ): 1.5 µM; IC50 (CK1γ1): > 100 µM; % Binding (RPS6KA5): <50%; % Binding (STK10): <50%; % Binding (STK17B): <50%; % Binding (TXK): <50%; % Binding (ULK3(mouse)): <50%; % Binding (PTK6): <50%; % Binding (RPS6KA2): <50%; % Binding (RPS6KA3): <50%; % Binding (STK3): <50%; % Binding (STK4): <50%; inhibition of IL-1β or LPS-induced IL-6 production [1]: inhibition |
